The values that follow come from paper PMC7356998, “Intrinsic Dissolution Rate Profiling of Poorly Water-Soluble Compounds in Biorelevant Dissolution Media” (Pharmaceutics, 2020).

Data set [1] can be described thus: Intrinsic dissolution rate from controlled suspensions (SIDR), μDiss Profiler. It is filed as physicochemical. The conditions noted are these: for IDRFaSSIF-V1 / IDRFaSSIF-V2 / IDRFeSSIF-V2: suspension (S), 100 rpm, mean ± SD; for IDRFaSSIF-V1: FaSSIF-V1 pH 6.5, 37 °C; for IDRFaSSIF-V2: FaSSIF-V2 pH 6.5, 37 °C; for IDRFeSSIF-V2: FeSSIF-V2 pH 5.8, 37 °C; for IDR in fed-state medium (FeSSIF-V1) compared to fasted-state (FaSSIF-V1): suspension assays. As for the experimental part:
Controlled suspensions of the APIs were prepared by tip ultrasonication in suspension media. For compatibility reasons, the suspension medium composition was 2% PVP K30 and 0.2% SDS in MilliQ water for acidic and neutral compounds or 1% HPMC and 0.2% SDS in MilliQ water for basic compounds. Suspension media were stirred for at least an hour until a clear solution was obtained. All suspensions were prepared at a concentration of 4 mg API/mL suspension medium by weighing 16 mg of the compound into a glass vial and adding 4 mL of the corresponding suspension medium. The suspension was then briefly vortexed prior to 5 min of tip ultrasonication using a Vibra-Cell sonicator mounted with a 13 mm (Ø) probe tip (Sonics, Newtown, CT, USA). The following settings were used: 20% amplitude, pulse 10 s on and 5 s off. The vial containing the suspension was placed in a beaker with ice during ultrasonication to avoid heating. Felodipine and griseofulvin were treated slightly differently to avoid forming a large fraction of submicron-sized particles. The felodipine suspension was only ultrasonicated for 1 min, and the griseofulvin suspension was used immediately after vortexing and without ultrasonication. All prepared suspensions were kept in an oven at 37 °C prior to use in the dissolution experiments. Dissolution experiments were performed within three hours of sample preparation.
The freshly prepared suspension was diluted (100 µL in 1 mL MilliQ water) and immediately used for determination of hydrodynamic particle size by dynamic light scattering (DLS; Litesizer 500, Anton Paar GmbH, Graz, Austria) at 25 °C. Peak values from the intensity-based particle size distribution were used for calculating total particle surface area in the suspension following the approach of Andersson et al.. In case of bimodal particle size distributions, an intensity peak weighted average particle size was calculated. The following assumptions were made for the surface area calculations: (i) spherical particles, (ii) constant particle size, and (iii) constant number of particles during the initial phase of the dissolution experiment (i.e., under sink conditions or <0.3 × Sapp). Using these assumptions, the volume of each particle (Vparticle) is:(1) Vparticle=4πr^3/3, where r is the mean radius of the suspended particles. The particle surface area (SAparticle) is:(2) SAparticle=4πr^2, and the volume of compound (Vmaterial) added to the dissolution medium is:(3) Vmaterial=m/ρ, where m is the total mass of compound added and ρ is the density of the compound. The total number of particles (n) in the suspension can thus be calculated from:(4) nparticles=Vmaterial/Vparticle
Finally, the total surface area (A, cm^2) of all particles present in the suspension added to the dissolution medium is calculated through:(5) A=nparticlesSAparticle
Dissolution experiments were carried out in a small-scale dissolution apparatus using in situ fiber optic probes to measure the amount of drug dissolved over time by UV absorbance (μDiss Profiler, Pion Inc., Billerica, MA, USA). Drug dissolution was carried out from suspensions (S) or discs (D) depending on the solubility of the compound in the biorelevant media studied (Table 3). […].
Standard curves were established by adding aliquots of DMSO stock solutions of the compounds to 3 mL of biorelevant medium, respectively. Dissolution media were prepared following the protocol provided by Biorelevant.com Ltd. and used within 48 h after their preparation. The media were incubated at 37 °C for at least one hour prior to use in the dissolution experiments. The hydrodynamic diameter of the micelles/vesicles formed in the biorelevant media were measured by DLS (Table 2). […] The biorelevant dissolution medium was maintained at 37 °C in the μDiss Profiler and stirred at 800 rpm during addition of the DMSO stock aliquots. […]

For data set [2] the following is noted: apparent solubility, cited from earlier work; for SFaSSIF-V1: FaSSIF-V1 pH 6.5; for SFeSSIF-V1: FeSSIF-V1 pH 5.
A short description of data set [3]: Apparent solubility estimated from dissolution experiments in the μDiss Profiler. The note with it: for solubility thermodynamic: thermodynamic from solid. The format is physicochemical. The procedure: If literature values were not available, Sapp values were estimated from the dissolution experiments either from the steady state concentration reached during dissolution making use of an excess amount material, or by nonlinear regression analysis of the dissolution data in GraphPad Prism 7.04 (GraphPad Software Inc., San Diego, CA, USA). […] In these experiments, an excess amount of drug was added to triplicate Eppendorf tubes containing 1 mL of the respective dissolution medium. The tubes were vortexed and placed in a 37 °C incubator. Samples for HPLC analysis were taken 24, 48, and 72 h (triplicates at each time point) after initiation of the experiment to ensure that equilibrium had been reached. The samples were centrifuged at 37 °C, 23,000 g for 10 min (Heraeus Megafuge 8R, Thermo Scientific, Waltham, MA, USA). The supernatant was sampled, diluted 1:1 with acetonitrile, and kept refrigerated until HPLC analysis. The concentrations of the dissolved drugs were determined using a HPLC (Agilent Technologies 1290 Infinity, Santa Clara, CA, USA) with a Zorbax Eclipse XDB-C18 column (4.6 × 100 mm; Agilent Technologies, Santa Clara, CA, USA) kept at 40 °C. The injection volumes were 20 μL. A mobile phase 0.1% formic acid in acetonitrile: 0.1% formic acid in water 60:40 (v/v) and an isocratic flow rate at 1 mL/min were used for both naproxen and ethinylestradiol. UV absorbances were monitored at a wavelength of 232 nm for naproxen and 315 nm for ethinylestradiol. The retention time was 1.76 min for naproxen and 1.85 min for ethinylestradiol. Dissolution experiments were carried out in a small-scale dissolution apparatus using in situ fiber optic probes to measure the amount of drug dissolved over time by UV absorbance (μDiss Profiler, Pion Inc., Billerica, MA, USA). Drug dissolution was carried out from suspensions (S) or discs (D) depending on the solubility of the compound in the biorelevant media studied (Table 3). […] Glass vials (six in parallel), each containing 15 mL of biorelevant dissolution medium and a crossbar stirrer, were used for the dissolution experiments. The stirring rate was set to 100 rpm. Freshly prepared API suspensions were briefly vortexed to re-disperse any sediments and 500 μL of suspension was added to each vial to initiate the experiment. […] Experiments were run for at least 20 min with data collected every 1 s for the first 8 min and then once per minute for the remaining time. All dissolution experiments from suspensions were carried out in triplicate.

The mark [4] stands for this setting: FaSSIF-V1, 37 °C, pH 6.5, fassif, FaSSIF-V1 pH 6.5, determined from dissolution experiments in the μDiss Profiler, read-out: SFaSSIF-V1.
[5] abbreviates: FeSSIF-V1, 37 °C, pH 5, fessif, FeSSIF-V1 pH 5, determined from dissolution experiments in the μDiss Profiler, read-out: SFeSSIF-V1.

In brackets after ≈: the same amount, converted by molar mass. Read-outs that look alike come from different tables or passages of the source. Marks after values point to notes of the source that are not given here.

In data set [1], `COc1ccc(CCN2CCC(Nc3nc4ccccc4n3Cc3ccc(F)cc3)CC2)cc1` [Astemizole] displayed an IDRFaSSIF-V1 of 8.6 ± 0.4 μg/min/cm^2 and an IDRFaSSIF-V2 of 2.0 ± 0.2 μg/min/cm^2. For the same molecule, in data set [2], the SFaSSIF-V1 is 97.9 ± 2.1 [15] μg/mL and the SFeSSIF-V1 was 182 ± 1 [15] μg/mL. Also, in data set [2] (listed as astemizole), the SFaSSIF-V1 is ~ 100 μg/mL.

On to `CC(C)(Oc1ccc(CCNC(=O)c2ccc(Cl)cc2)cc1)C(=O)O` [Bezafibrate], for which, in data set [3] (setting [4]), the solubility thermodynamic was approximately 100 µg/mL (≈ 276 µM). Also, the SFaSSIF-V1 in data set [3] (FaSSIF-V1 pH 6.5, determined from dissolution experiments in the μDiss Profiler) was 91.0 ± 8.9 µg/mL. Also, in data set [3] (FeSSIF-V1 pH 5, extrapolation of μDiss dissolution data by nonlinear regression (GraphPad Prism)), the SFeSSIF-V1 is 105.7 ‡ μg/mL. The IDRFaSSIF-V1 in data set [1] came to 32.7 ± 3.9 μg/min/cm^2.

In data set [1], `COc1ccccc1OCCNCC(O)COc1cccc2[nH]c3ccccc3c12` (stereo not shown) [Carvedilol] gave an IDRFaSSIF-V1 of 2.9 ± 0.5 μg/min/cm^2, an IDRFaSSIF-V2 of 1.5 ± 0.2 μg/min/cm^2 and an IDRFeSSIF-V2 of 13.6 ± 0.6 μg/min/cm^2. Moreover, in data set [2], the SFaSSIF-V1 is 55.9 ± 1.0 [15] μg/mL and the SFeSSIF-V1 is 305 ± 2 [15] μg/mL.

Regarding `C(=C\c1ccccc1)/CN1CCN(C(c2ccccc2)c2ccccc2)CC1` [Cinnarizine], in data set [1], the IDRFaSSIF-V1 is given as 0.3 ± 0.01 μg/min/cm^2.

As to `C#C[C@]1(O)CC[C@H]2[C@@H]3CCC4=Cc5oncc5C[C@]4(C)[C@H]3CC[C@@]21C` [Danazol], in data set [1], the IDRFaSSIF-V1 came to 0.14 ± 0.02 μg/min/cm^2 and the “IDR in fed-state medium (FeSSIF-V1) compared to fasted-state (FaSSIF-V1)” value (shortened to “IDR … compared to fasted-state (FaSSIF-V1)”) turned out to be 28 fold.

Turning to `OCCN(CCO)c1nc(N2CCCCC2)c2nc(N(CCO)CCO)nc(N3CCCCC3)c2n1` [Dipyridamole], in data set [1], the IDRFaSSIF-V1 is 0.5 ± 0.05 μg/min/cm^2, the IDRFaSSIF-V2 is recorded as 0.5 ± 0.03 μg/min/cm^2 and the IDRFeSSIF-V2 is given as 1.7 ± 0.3 μg/min/cm^2. In addition, in data set [2], the SFaSSIF-V1 is 11.1 ± 3.0 [48] μg/mL and the SFeSSIF-V1 was 148.9 ± 19.7 [48] μg/mL. Also, the SFaSSIF-V1 in data set [2] (listed as dipyridamole) was 11 to 13 µg/mL.

`CCOC(=O)C1=C(C)NC(C)=C(C(=O)OC)C1c1cccc(Cl)c1Cl` (stereo not shown) [Felodipine]: in data set [1], the IDRFaSSIF-V1 is recorded as 0.8 ± 0.4 μg/min/cm^2, the IDRFaSSIF-V2 is recorded as 0.6 ± 0.2 μg/min/cm^2 and the IDRFeSSIF-V2 stood at 1.5 ± 0.2 μg/min/cm^2. For the same molecule, in data set [2], the SFaSSIF-V1 was 31.8 ± 1.7 [7] μg/mL and the SFeSSIF-V1 is 44.9 ± 9.2 [48] μg/mL.

As for `CC(C)OC(=O)C(C)(C)Oc1ccc(C(=O)c2ccc(Cl)cc2)cc1` [Fenofibrate], in data set [1], the IDRFaSSIF-V1 was 0.04 ± 0.002 μg/min/cm^2, the IDRFaSSIF-V2 turned out to be 0.05 ± 0.001 μg/min/cm^2 and the IDRFeSSIF-V2 is recorded as 2.7 ± 0.3 μg/min/cm^2.

In the case of `COC1=CC(=O)C[C@@H](C)[C@]12Oc1c(Cl)c(OC)cc(OC)c1C2=O` [Griseofulvin], in data set [1], the IDRFaSSIF-V1 is 3.7 ± 0.6 μg/min/cm^2 and the “IDR … compared to fasted-state (FaSSIF-V1)” value is on record as “lower”. Besides, in data set [2], the SFaSSIF-V1 was 23.4 ± 1.8 [41] μg/mL and the SFeSSIF-V1 was 29.2 ± 3.4 [41] μg/mL.

With `Cc1cccc(Nc2ccccc2C(=O)O)c1C` [Mefenamic acid], the solubility thermodynamic in data set [3] (setting [4]) is 36.6 ± 0.6 µg/mL (≈ 152 µM). The solubility thermodynamic in data set [3] (setting [5]) was 33.2 ± 0.7 µg/mL (≈ 138 µM). Further, in data set [1], the IDRFaSSIF-V1 came to 13.9 ± 2.0 μg/min/cm^2, the IDRFaSSIF-V2 stood at 11.9 ± 1.0 μg/min/cm^2 and the IDRFeSSIF-V2 was 7.9 ± 2.1 μg/min/cm^2.

Take `COc1ccc2c(c1OC)C(=O)O[C@@H]2[C@H]1c2c(cc3c(c2OC)OCO3)CCN1C` [Noscapine]: the SFaSSIF-V1 in data set [3] (FaSSIF-V1 pH 6.5, extrapolation of μDiss dissolution data by nonlinear regression (GraphPad Prism)) is 13.4 ‡ μg/mL. Moreover, in data set [3] (FaSSIF-V1 pH 6.5, extrapolation of μDiss dissolution data by nonlinear regression (GraphPad Prism), listed as noscapine), the SFaSSIF-V1 was 11 to 13 µg/mL. In data set [1], this molecule displayed an IDRFaSSIF-V1 of 1.1 ± 0.2 μg/min/cm^2, an IDRFaSSIF-V2 of 1.2 ± 0.1 μg/min/cm^2 and an IDRFeSSIF-V2 of 5.2 ± 0.8 μg/min/cm^2.

As to `CC(=O)[C@H]1CC[C@H]2[C@@H]3CCC4=CC(=O)CC[C@]4(C)[C@H]3CC[C@]12C` [Progesterone], in data set [1], the IDRFaSSIF-V1 turned out to be 16.8 ± 0.5 μg/min/cm^2. In data set [2], the SFaSSIF-V1 was 25.5 ± 1.1 [50] μg/mL and the SFeSSIF-V1 is 78.6 ± 16.2 [41] μg/mL.

As for `CN1CC(=O)N2[C@H](c3ccc4c(c3)OCO4)c3[nH]c4ccccc4c3C[C@@H]2C1=O` [Tadalafil], the solubility thermodynamic in data set [3] (setting [5]) was 21 ± 0.5 µg/mL (≈ 53.9 µM). Further, in data set [1], the IDRFaSSIF-V1 was determined as 3.4 ± 0.7 μg/min/cm^2, the IDRFaSSIF-V2 stood at 1.3 ± 0.8 μg/min/cm^2 and the “IDR … compared to fasted-state (FaSSIF-V1)” value was “double”. In data set [2], the SFaSSIF-V1 is 5.9 ± 0.7 [7] μg/mL.

As for `Cc1c(Cl)cccc1Nc1ccccc1C(=O)O` [Tolfenamic acid], in data set [1], the IDRFaSSIF-V1 was 4.1 ± 0.8 μg/min/cm^2, the IDRFaSSIF-V2 was determined as 12.9 ± 0.9 μg/min/cm^2 and the IDRFeSSIF-V2 came out at 4.8 ± 0.6 μg/min/cm^2. Moreover, in data set [2], the SFaSSIF-V1 was 63.0 ± 2.7 [15] μg/mL and the SFeSSIF-V1 was 41.0 ± 0.5 [15] μg/mL.
